From ChEMBL document CHEMBL5352418, “Molecular networking assisted discovery and combinatorial biosynthesis of new antimicrobial pleuromutilins” (Eur J Med Chem, 2022)

What follows are molecules tested on Mycobacterium tuberculosis variant bovis (assay: Antibacterial activity against Mycobacterium bovis BCG ATCC 35743 constitutive expressing GFP assessed as bacterial growth inhibition at 20 uM by CLSI protocol based broth microdilution method). Details: read-out: GI.
Format: functional

Compound	inhibition of growth at 20 µM
C=C[C@]1(C)C[C@@H](OC(=O)CO)[C@@]2(C)C3=CC(=O)C[C@@]3(CC[C@H]2C)[C@@H](C)[C@@H]1O	62%
C=C[C@]1(C)C[C@@H](O)[C@@]2(C)C3C(=O)CC[C@@]3(CC[C@H]2C)[C@@H](C)[C@@H]1O (some centres undefined)	48%
C=C[C@]1(C)C[C@@H](OC(=O)CO)[C@@]2(C)C3C(=O)CC[C@@]3(CC[C@H]2C)[C@@H](C)[C@@H]1O (some centres undefined)	50%
C[C@@H]1CC[C@@]23CCC(=O)C2[C@]1(C)[C@H](OC(=O)CO)C[C@@](C)([C@H](O)CO)[C@@H](O)[C@@H]3C (some centres undefined)	20%
C=C[C@]1(C)C[C@@H](O)[C@@]2(C)C3[C@H](O)CC[C@@]3(CC[C@H]2C)[C@@H](C)[C@@H]1O (some centres undefined)	36%
C=C[C@]1(C)C[C@@H](OC(C)=O)[C@@]2(C)C3=CC(=O)C[C@@]3([C@H](O)C[C@H]2C)[C@@H](C)[C@@H]1O	34%
C=C[C@]1(C)C[C@@H](O)[C@@]2(C)C3CCC[C@@]3(CC[C@H]2C)[C@@H](C)C1 (some centres undefined)	24%
C=C[C@]1(C)C[C@@H](OC(C)=O)[C@@]2(C)C3[C@H](O)CC[C@@]3(CC[C@H]2C)[C@@H](C)[C@@H]1O (some centres undefined)	43%
C=C[C@]1(C)C[C@@H](OC(=O)CO)[C@@]2(C)C3C(=O)[C@H](O)CC3(CC[C@H]2C)[C@@H](C)[C@@H]1O (single isomer, unassigned)	34%
